Measurements published in patent US10766869B2, “Triazoles for the treatment of demyelinating dieases” (Vertex Pharmaceuticals Incorporated, priority 2015, dated 2020).
Read-outs that look alike come from different tables or passages of the source.

System: primary rat mixed cortical cells
Test: In vitro myelination assay (MBP positive myelin strands, fold myelin pixels above background)
Type: cell-based
Details: for fold induction at 1 µM / fold induction at 10 µM: Rattus norvegicus
Procedure, shortened: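 Myelination read as total MBP-immunopositive strand pixels per well, imaged at 10× after fixation on day 14 and expressed relative to untreated wells, at 1.0 and 10.0 μM. Cells: dissociated postnatal day 1 rat cortex, cultured two weeks with compound, re-dosed at days 6 and 10.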

[1] = 1.0 μM compound, read-out: Fold myelin pixels above background relative to baseline of no added compound
[2] = 10.0 μM compound, read-out: Fold myelin pixels above background relative to baseline of no added compound
[3] = 1.0 μM compound, relative to baseline of no added compound, read-out: Fold myelin pixels above background, 1.0 μM
[4] = 10.0 μM compound, relative to baseline of no added compound, read-out: Fold myelin pixels above background, 10.0 μM
[5] = 1.0 μM compound, relative to baseline of no added compound, read-out: Fold myelin pixels above background
[6] = 10.0 μM compound, relative to baseline of no added compound, read-out: Fold myelin pixels above background

SMILES	fold induction at 1 µM [1]	fold induction at 10 µM [2]	fold induction at 1 µM [5]	fold induction at 10 µM [6]	other results
Cc1cc(Nc2ncn(-c3cnccn3)n2)cc(N2CC(N3CCCOCC3)C2)c1 [Compound 825, N-[3-methyl-5-[3-(1,4-oxazepan-4-yl)azetidin-1-yl]phenyl]-1-pyrazin-2-yl-1,2,4-triazol-3-amine]	10 to 100	10 to 100			
Cc1cc(Nc2ncn(-c3ccnc(F)c3)n2)cc(NC2CCN(C3COC3)C2)c1 (stereo not drawn) [Compound 249, N3-[1-(2-fluoro-4-pyridyl)-1,2,4-triazol-3-yl]-5-methyl-N1-[1-(oxetan-3-yl)pyrrolidin-3-yl]benzene-1,3-diamine]					fold induction at 1 µM [3]: 10 to 100; fold induction at 10 µM [4]: ≤ 1
Cc1cc(Nc2ncn(-c3cccc(C#N)c3)n2)cc(N2CCN(C3COC3)CC2)c1 [Compound 759, 3-[3-[3-methyl-5-[4-(oxetan-3-yl)piperazin-1-yl]anilino]-1,2,4-triazol-1-yl]benzonitrile]			1 to 10	1 to 10	
Fc1cc(Nc2ncn(-c3cncc(F)c3)n2)cc(N2CCOCC2)c1 [Compound 371, N-(3-fluoro-5-morpholino-phenyl)-1-(5-fluoro-3-pyridyl)-1,2,4-triazol-3-amine]					fold induction at 1 µM [3]: 1 to 10; fold induction at 10 µM [4]: 100 to 1000
Cc1cc(Nc2ncn(-c3ccccc3C)n2)cc(N2CCN(C3COC3)CC2)c1 [Compound 414, N-[3-methyl-5-[4-(oxetan-3-yl)piperazin-1-yl]phenyl]-1-(o-tolyl)-1,2,4-triazol-3-amine]			1 to 10	100 to 1000	
CN1CCN(c2cc(Nc3ncn(-c4cc(F)cc(F)c4)n3)cc(N3CCN(C)CC3)c2)CC1 [Compound 657, N-[3,5-bis(4-methylpiperazin-1-yl)phenyl]-1-(3,5-difluorophenyl)-1,2,4-triazol-3-amine]			1 to 10	≤ 1	
Cc1cc(Nc2ncn(-c3cc(F)cc(F)c3)n2)c(F)c(NC2CCOC2)c1 (stereo not drawn) [Compound 765, N3-[1-(3,5-difluorophenyl)-1,2,4-triazol-3-yl]-2-fluoro-5-methyl-N1-tetrahydrofuran-3-yl-benzene-1,3-diamine]			10 to 100	1 to 10	
Cc1cc(Nc2ncn(-c3ccnc(F)c3)n2)cc(N2CCOCC2)c1 [Compound 403, 1-(2-fluoro-4-pyridyl)-N-(3-methyl-5-morpholino-phenyl)-1,2,4-triazol-3-amine]			1000 to 10000	10 to 100	
Cc1cc(Nc2ncn(-c3cc(F)cc(F)c3)n2)cc(N2CCOC(C3CCCO3)C2)c1 (stereo not drawn) [Compound 972, 1-(3,5-difluorophenyl)-N-[3-methyl-5-(2-tetrahydrofuran-2-ylmorpholin-4-yl)phenyl]-1,2,4-triazol-3-amine]					Fold myelin pixels above background relative to baseline of no added compound (1.0 μM compound): − (≤1); Fold myelin pixels above background relative to baseline of no added compound (10.0 μM compound): + (>1 to 10x)
Fc1ccc(-n2cnc(Nc3cc(N4CCOCC4)nc(N4CCOCC4)c3)n2)cc1F [Compound 393, N-[1-(3,4-difluorophenyl)-1,2,4-triazol-3-yl]-2,6-dimorpholino-pyridin-4-amine]			100 to 1000	≤ 1	
Cc1cc(Nc2ncn(-c3ccc(C)c(F)c3)n2)cc(N2CCN(C3COC3)CC2)c1 [Compound 836, 1-(3-fluoro-4-methyl-phenyl)-N-[3-methyl-5-[4-(oxetan-3-yl)piperazin-1-yl]phenyl]-1,2,4-triazol-3-amine]	1 to 10	1 to 10			
Cc1cc(Nc2ncn(-c3cc(F)cc(F)c3)n2)cc(N2CC(N3CCOC4CC43)C2)c1 (stereo not drawn) [Compound 652, 1-(3,5-difluorophenyl)-N-[3-methyl-5-[3-(5-oxa-2-azabicyclo[4.1.0]heptan-2-yl)azetidin-1-yl]phenyl]-1,2,4-triazol-3-amine]			10 to 100	≤ 1	
Cc1cc(Nc2ncn(-c3cncc(F)c3)n2)cc(C2COC2)c1 [Compound 447, 1-(5-fluoro-3-pyridyl)-N-[3-methyl-5-(oxetan-3-yl)phenyl]-1,2,4-triazol-3-amine]			10 to 100	10 to 100	
Cc1cc(Nc2ncn(-c3cc(F)cc(F)c3)n2)c(C)c(N2CC(N3CCOCC3)C2)c1 [Compound 820, 1-(3,5-difluorophenyl)-N-[2,5-dimethyl-3-(3-morpholinoazetidin-1-yl)phenyl]-1,2,4-triazol-3-amine]	1 to 10	10 to 100			
COc1ccc(-n2cnc(Nc3cc(C)cc(N4CC(N5CCOCC5)C4)c3)n2)cc1F [Compound 735, 1-(3-fluoro-4-methoxy-phenyl)-N-[3-methyl-5-(3-morpholinoazetidin-1-yl)phenyl]-1,2,4-triazol-3-amine]			1 to 10	1 to 10	
Cc1cc(Nc2ncn(-c3cc(F)cc(F)c3)n2)cc(N2CCN(C)C3(COC3)C2)c1 [Compound 349, 1-(3,5-difluorophenyl)-N-[3-methyl-5-(9-methyl-2-oxa-6,9-diazaspiro[3.5]nonan-6-yl)phenyl]-1,2,4-triazol-3-amine]					fold induction at 1 µM [3]: 10 to 100; fold induction at 10 µM [4]: 100 to 1000
Cc1cc(Nc2ncn(-c3cc(F)cc(F)c3)n2)cc(N2CCN(C3CCCC3O)CC2)c1 (stereo not drawn) [Compound 875, 2-[4-[3-[[1-(3,5-difluorophenyl)-1,2,4-triazol-3-yl]amino]-5-methyl-phenyl]piperazin-1-yl]cyclopentanol]	10 to 100	≤ 1			
Cc1cc(Nc2ncn(-c3cc(F)cc(F)c3)n2)nc(N2CCN(C3(C)COC3)CC2)c1 [Compound 580, N-[1-(3,5-difluorophenyl)-1,2,4-triazol-3-yl]-4-methyl-6-[4-(3-methyloxetan-3-yl)piperazin-1-yl]pyridin-2-amine]			≤ 1	1 to 10	
c1ccc(-n2cnc(Nc3cc(C4CCOCC4)cc(C4CCOCC4)c3)n2)cc1 [Compound 10, N-[3,5-di(tetrahydropyran-4-yl)phenyl]-1-phenyl-1,2,4-triazol-3-amine]					fold induction at 1 µM [3]: 1 to 10; fold induction at 10 µM [4]: ≤ 1
COCCN1CCN(c2cc(C)cc(Nc3ncn(-c4cc(F)cc(F)c4)n3)c2)CC1=O [Compound 1067, 4-[3-[[1-(3,5-difluorophenyl)-1,2,4-triazol-3-yl]amino]-5-methyl-phenyl]-1-(2-methoxyethyl)piperazin-2-one]	1 to 10	≤ 1			
Cc1cc(Nc2ncn(-c3ccnc(F)c3)n2)nc(N2CC(N3CCOCC3)C2)c1 [Compound 504, N-[1-(2-fluoro-4-pyridyl)-1,2,4-triazol-3-yl]-4-methyl-6-(3-morpholinoazetidin-1-yl)pyridin-2-amine]			10 to 100	10 to 100	
Cc1cc(Nc2ncn(-c3ccncn3)n2)cc(N2CCN(C3COC3)CC2)c1 [Compound 174, N-[3-methyl-5-[4-(oxetan-3-yl)piperazin-1-yl]phenyl]-1-pyrimidin-4-yl-1,2,4-triazol-3-amine]					fold induction at 1 µM [3]: 1 to 10; fold induction at 10 µM [4]: 10 to 100
Cc1cc(Nc2ncn(-c3cc(F)cc(F)c3)n2)cc(N2CC(N3CCOCC3)CC2C)c1 (stereo not drawn) [Compound 920, 1-(3,5-difluorophenyl)-N-[3-methyl-5-(2-methyl-4-morpholino-pyrrolidin-1-yl)phenyl]-1,2,4-triazol-3-amine]	10 to 100	≤ 1			
N#Cc1cc(N2CCN(C3COC3)CC2)cc(Nc2ncn(-c3cc(F)cc(F)c3)n2)n1 [Compound 707, 6-[[1-(3,5-difluorophenyl)-1,2,4-triazol-3-yl]amino]-4-[4-(oxetan-3-yl)piperazin-1-yl]pyridine-2-carbonitrile]			≤ 1	≤ 1	
COC1CCCN(c2cc(C)cc(Nc3ncn(-c4cc(F)cc(F)c4)n3)n2)C1 (stereo not drawn) [Compound 764, N-[1-(3,5-difluorophenyl)-1,2,4-triazol-3-yl]-6-(3-methoxy-1-piperidyl)-4-methyl-pyridin-2-amine]			1 to 10	1 to 10	
Cc1cc(Nc2ncn(-c3ccc(F)c(F)c3)n2)cc(OCC2(C)COC2)c1 [Compound 615, 1-(3,4-difluorophenyl)-N-[3-methyl-5-[(3-methyloxetan-3-yl)methoxy]phenyl]-1,2,4-triazol-3-amine]			10 to 100	10 to 100	
COCC1CCN(c2cc(C(F)F)cc(Nc3ncn(-c4cccc(C(F)(F)F)c4)n3)n2)CC1 [Compound 795, 4-(difluoromethyl)-6-[4-(methoxymethyl)-1-piperidyl]-N-[1-[3-(trifluoromethyl)phenyl]-1,2,4-triazol-3-yl]pyridin-2-amine]	1 to 10	1 to 10			
Cc1cc(NC2CCOCC2)cc(Nc2ncn(-c3cc(F)cc(F)c3)n2)c1F [Compound 1021, N3-[1-(3,5-difluorophenyl)-1,2,4-triazol-3-yl]-4-fluoro-5-methyl-N1-tetrahydropyran-4-yl-benzene-1,3-diamine]	1 to 10	≤ 1			
Cc1cc(Nc2ncn(-c3cc(F)cc(F)c3)n2)cc(N2CCC(OCCN3CCCC3)CC2)c1 [Compound 1074, 1-(3,5-difluorophenyl)-N-[3-methyl-5-[4-(2-pyrrolidin-1-ylethoxy)-1-piperidyl]phenyl]-1,2,4-triazol-3-amine]	1 to 10	≤ 1			
COCCN1CCCC(Nc2cc(C)cc(Nc3ncn(-c4cc(F)cc(F)c4)n3)c2)C1 (stereo not drawn) [Compound 1050, N3-[1-(3,5-difluorophenyl)-1,2,4-triazol-3-yl]-N1-[1-(2-methoxyethyl)-3-piperidyl]-5-methyl-benzene-1,3-diamine]	10 to 100	≤ 1			
